Measurements published in US12297241B2, “Method to engineer transplantable human tissues” (The Regents of the University of California, priority 2018, dated 2025).

Columns and labels:
H1 ESC line = experiment: HSV-tk suicide gene killing test with GCV in transduced H1 ESC line; assay type: cell-based, human; settings: GCV 10 μM, 5 days
Description: FIGS. 1A-1F: Molecular Sculpting of the Teratoma through miRNAs. (FIG. 1A) Schematic of miRNA-HSV-tk-GFP construct. 2A is gene encoding for a self-cleaving peptide. Upon transcription of construct it will silenced if appropriate endogenously expressed miRNA is present in the cell. (FIG. 1B) Schematic of how developing teratoma should form in the presence of Ganciclovir (GCV, 80 mg/kg/d) if cells were transduced with miRNA-HSV-tk construct. (FIG. 1C) Phase images from light microscopy showing H1 cell survival after 3 and 5 days in the presence of GCV (10 μM). H1 ESC line was either transduced with GFP control (EGIP backbone) or miR-124-HSV-tk-GFP. (FIG. 1D) Fluorescent microscopy and phase images showing HEK293T and HeLA cells transduced with either No GFP control, HSV-tk-GFP, or miR-21-HSV-tk-GFP. (FIG. 1E) Quantification of (FIG. 1D) using flow cytometry and gating based on the presence or absence of GFP. […]
miRNA-HSV-tk constructs were tested in vitro in the H1 ESC line. The functionality of the suicide gene HSV-tk was assessed in the presence of GCV. […] Furthermore, the unique miRNA specificity of the constructs was assessed based on cell type. […]

[1] = tested on: miR-124-HSV-tk teratomas (H1 ESC line); experiment: In vivo enrichment of miR-124-HSV-tk teratomas with intratumoral GCV, scRNA-seq; set-up: species or system Rag2−/−;γc−/− immunodeficient mice
Description: FIGS. 1A-1F: Molecular Sculpting of the Teratoma through miRNAs. (FIG. 1A) Schematic of miRNA-HSV-tk-GFP construct. 2A is gene encoding for a self-cleaving peptide. Upon transcription of construct it will silenced if appropriate endogenously expressed miRNA is present in the cell. (FIG. 1B) Schematic of how developing teratoma should form in the presence of Ganciclovir (GCV, 80 mg/kg/d) if cells were transduced with miRNA-HSV-tk construct. (FIG. 1C) Phase images from light microscopy showing H1 cell survival after 3 and 5 days in the presence of GCV (10 μM). H1 ESC line was either transduced with GFP control (EGIP backbone) or miR-124-HSV-tk-GFP. (FIG. 1D) Fluorescent microscopy and phase images showing HEK293T and HeLA cells transduced with either No GFP control, HSV-tk-GFP, or miR-21-HSV-tk-GFP. (FIG. 1E) Quantification of (FIG. 1D) using flow cytometry and gating based on the presence or absence of GFP. (FIG. 1F) In vivo studies of miR-124-HSV-tk-GFP teratomas in the presence of GCV administration (80 mg/kg/d) showing cell type fraction log fold-change based on different cell types with accompanying Z-scores compared to miR-124-HSV-tk-GFP teratomas in the absence of GCV.
Applicant then tested the miRNA-HSV-tk constructs in vivo with the goal to grow a teratoma that is enriched for a desired lineage. For this task the miR-124-HSV-tk construct was selected to enrich for the neural lineage. After the H1 ESC line was successfully transduced and selected for the miR-124-HSV-tk construct, cells were subcutaneously injected into Rag2^−/−;γc^−/− immunodeficient mice and allowed to form teratomas as described above. Once teratomas reached a minimum of 1 cm in diameter, intratumoral injections with GCV (80 mg/kg/d) for half to tumors began until they grew an appropriate time for extraction (˜10 weeks).
However, enrichment for foregut was also observed. To the best os Applicant's knowledge, there is no known published literature on miR-124 having a role in foregut development.

[2] = intratumoral GCV 80 mg/kg/d vs tumor without GCV

Compound: Nc1nc(O)c2ncn(COC(CO)CO)c2n1 [GCV, ganciclovir]
- cell survival in the presence of GCV (H1 ESC line; H1 cells transduced with GFP control (EGIP backbone alone)): unaffected
- cell survival in the presence of GCV (H1 ESC line; H1 cells transduced with the miRNA-HSV-tk construct): total cell death
- tumor size ([1]; intratumoral GCV 80 mg/kg/d until extraction (~10 weeks) vs tumor without GCV): smaller size
- cell types depleted (scRNA-seq) [1, 2]: muscle, retinal pigmented epithelium, and many other cell types
- cell-type fraction enriched (scRNA-seq) [1, 2]: early neurons, neuronal progenitors, Schwann cells, and foregut
- external heterogeneity of tumor [1, 2]: less heterogeneous
